Assay results published in patent US8105798B2, “Cytoplasmic activity of retinoid X receptor and its regulation by ligands and dimerization” (The Burnham Institute, priority 2003, dated 2012).

How the values were obtained:
RXRα/IKK interaction = target: T1, RXRα/IKK interaction (Homo sapiens, UniProt P19793); experiment: co-immunoprecipitation assay of RXRα with IKK; assay type: cell-based; settings: 6 hr
T1 construct: expressed in transfected cells; host or cells: HEK293T, pcDNA3 expression vectors
Excerpt: IKK is composed of three subunits: IKKα and IKKβ, the catalytic subunits, and IKKγ, a regulatory subunit. IKK activation is required for NF-kB activation through its phosphorylation and degradation of IkB in response to proinflammatory stimuli. In addition, IKK also regulates cellular processes in a NF-kB-independent manner. We examined whether sulindac sulfide-induced cytoplasmic RXRα could interact with IKK. The indicated expression vector (pcDNA3 from Invitrogen, Corp) was transfected into HEK293T cells alone or together. After transfection, cells were treated with sulindac sulfide (75.micro.M) for 6 hr, and the interaction of RXRα and IKKβ was analyzed by co-immunoprecipitation assay. […] (FIG. 17a). The interaction was also illustrated by their cytoplasmic co-localization in cells treated with sulindac sulfide. (FIG. 17b). […] In this example, H460 cells were treated with or without sulindac sulfide (75.micro.M) for 6 hr, and cells were stained for RXRα and IKKβ (FIG. 17c). […] HA-IKKγ and Flag-RXRα expression vectors were transfected into HEK293T cells alone or together. After transfection, cells were treated with a new retinoid (BI419 (10^-6 M), 15d-PGJ2 (5.micro.M), or sulindac sulfide (75.micro.M) for 6 hr. The interaction of RXRα and IKKγ was studied by co-immunoprecipitation assay.

RXR.alpha = target: T2, RXR.alpha (Homo sapiens, UniProt P19793); experiment: isothermal titration calorimetry (ITC); assay type: binding; settings: data not shown
T2 sequence (P19793 1-462): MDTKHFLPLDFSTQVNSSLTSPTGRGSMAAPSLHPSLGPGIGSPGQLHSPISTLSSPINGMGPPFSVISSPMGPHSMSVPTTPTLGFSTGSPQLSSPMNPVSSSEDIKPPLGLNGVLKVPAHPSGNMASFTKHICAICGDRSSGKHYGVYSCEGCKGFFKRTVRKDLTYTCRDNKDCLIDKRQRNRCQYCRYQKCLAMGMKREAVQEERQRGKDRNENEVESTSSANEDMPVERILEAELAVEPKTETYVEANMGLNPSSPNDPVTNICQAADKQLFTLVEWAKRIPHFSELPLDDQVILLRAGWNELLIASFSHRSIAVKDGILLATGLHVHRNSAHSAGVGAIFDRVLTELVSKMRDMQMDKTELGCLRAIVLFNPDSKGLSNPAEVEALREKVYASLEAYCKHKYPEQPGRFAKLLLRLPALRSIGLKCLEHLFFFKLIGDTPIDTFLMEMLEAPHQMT
Experimental: ITC is a thermodynamic technique for monitoring the binding reaction of two components. When a protein binds a ligand, heat is either generated or absorbed, and quantitation of this heat allows very accurate determination of the binding dissociation constant (kD), reaction stoichiometry (n), enthalpy and entropy. Heat effects a small as 0.2.micro.cal can be measured and titrations can be done on as little as 1 ml of a dilute solution. (See generally, Pierce, M. M., Raman, C. S., and Nall, B. T., Methods, (1999) 19: 213-21)

RARβ expression = experiment: RARβ protein expression by Western analysis in cancer cells; assay type: cell-based; settings: sulindac sulfide 100 μM, 24 hr
Experimental: The indicated cancer cells were treated for 24 h with or without trans-RA (10^-6 M), or 15d-PGJ2 (5.micro.M) or their combination. RARβ protein expression was determined by Western analysis.
The effect of sulindac sulfide on RXR transactivation was investigated for its effect of RARβ induction by all-trans-retinoic acid (tRA), which activates the RA response element (βRARE) in the RARβ promoter through an RAR/RXR heterodimer. […] The βRARE could be also activated by an RXR/PPAR heterodimer. […] Cells were treated for 24 hr with or without with trans-RA (10^-6 M), or SR11237 (10^-6 M), ciglitazone (10.micro.M), sulindac sulfide (100.micro.M) or the indicated combinations. RARβ protein expression was determined by Western analysis.

RXRα = target: T3, RXRα (Homo sapiens, UniProt P19793); experiment: subcellular localization of RXRα by immunostaining / confocal microscopy; assay type: cell-based
T3 sequence (P19793 1-462): T2 sequence (P19793 1-462)
Experimental: Expression vector for Flag-RXRα was transfected into the indicated cell line. Cells were then treated with 15d-PGJ2 (5.micro.M) for 3 hr, then immunostained with anti-Flag antibody to detect RXRα Flag-RXRα was visualized by confocal microscopy.
Expression vectors for Flag-RXRα and GFP-TR3 were transfected into PC12 cells alone or together. Cells were then treated with 15d-PGJ2 (5.micro.M) for 3 hr, then immunostained with anti-Flag antibody to detect RXRα Flag-RXRα and GFP-TR3 were visualized by confocal microscopy, and their images merged.
Cos7 cells were transfected with GFP-RXRα and Mito-REP, and treated with or without 10^-4 M indomethacin or diclofenac for 4 hours. The distribution of GFP-RXRα and Mito-REP was visualized by confocal microscopy.
For example, cells such as LNCaP prostate cancer cells are induced to apoptosis using agents such as the phorbol ester, TPA (12-0-tetradecanolphorbol 13-acetate, Cell Signaling Technology Cat. No.: 9905).
For example, heat shock protein 60 (Hsp60) is a mitochondrial specific protein. […] The treated cells are then incubated with a conjugated secondary antibody and visualized using confocal microscopy. In this example, Cy-3 or FITC conjugated secondary antibodies were used for visualizing the sub-cellular localization of RXRα or Hsp60, respectively.
A GFP-RXRα expression vector was transfected into COS-7 cells and GFP-RXRα was expressed.
A fusion protein created by combining GFP and amino acids 348-398 of RXRα, is transfected into HEK293T cells.
To determine the role of 15d-PGJ2 binding on the new RXR pathway, a confocal microscopy analysis was performed to determine subcellular localization of RXRα in the presence or absence of 15d-PGJ2.
Because RXR heterodimerizes with TR3, Inventor examined the effect of 15d-PGJ2 on TR3 subcellular localization in PC12 phaeochromocytoma cells.
To determine the mechanism of RXRα mediated apoptosis in the presence of sulindac sulfide, Inventors examined the effect of sulindac sulfide on subcellular localization of RXRα

T1 sequence (Q9Y6K9 whole entry partner, one chain of several): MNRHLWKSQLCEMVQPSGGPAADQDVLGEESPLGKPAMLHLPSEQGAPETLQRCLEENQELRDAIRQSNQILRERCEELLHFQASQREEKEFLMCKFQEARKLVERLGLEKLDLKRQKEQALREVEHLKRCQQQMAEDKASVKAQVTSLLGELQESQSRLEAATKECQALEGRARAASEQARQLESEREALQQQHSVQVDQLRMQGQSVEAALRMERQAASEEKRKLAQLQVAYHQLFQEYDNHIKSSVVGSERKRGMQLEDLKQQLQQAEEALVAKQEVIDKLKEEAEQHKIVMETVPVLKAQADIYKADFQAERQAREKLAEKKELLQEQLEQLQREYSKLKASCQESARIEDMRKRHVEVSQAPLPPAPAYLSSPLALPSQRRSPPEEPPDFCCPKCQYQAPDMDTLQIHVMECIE
T1 sequence (O14920 whole entry partner, one chain of several): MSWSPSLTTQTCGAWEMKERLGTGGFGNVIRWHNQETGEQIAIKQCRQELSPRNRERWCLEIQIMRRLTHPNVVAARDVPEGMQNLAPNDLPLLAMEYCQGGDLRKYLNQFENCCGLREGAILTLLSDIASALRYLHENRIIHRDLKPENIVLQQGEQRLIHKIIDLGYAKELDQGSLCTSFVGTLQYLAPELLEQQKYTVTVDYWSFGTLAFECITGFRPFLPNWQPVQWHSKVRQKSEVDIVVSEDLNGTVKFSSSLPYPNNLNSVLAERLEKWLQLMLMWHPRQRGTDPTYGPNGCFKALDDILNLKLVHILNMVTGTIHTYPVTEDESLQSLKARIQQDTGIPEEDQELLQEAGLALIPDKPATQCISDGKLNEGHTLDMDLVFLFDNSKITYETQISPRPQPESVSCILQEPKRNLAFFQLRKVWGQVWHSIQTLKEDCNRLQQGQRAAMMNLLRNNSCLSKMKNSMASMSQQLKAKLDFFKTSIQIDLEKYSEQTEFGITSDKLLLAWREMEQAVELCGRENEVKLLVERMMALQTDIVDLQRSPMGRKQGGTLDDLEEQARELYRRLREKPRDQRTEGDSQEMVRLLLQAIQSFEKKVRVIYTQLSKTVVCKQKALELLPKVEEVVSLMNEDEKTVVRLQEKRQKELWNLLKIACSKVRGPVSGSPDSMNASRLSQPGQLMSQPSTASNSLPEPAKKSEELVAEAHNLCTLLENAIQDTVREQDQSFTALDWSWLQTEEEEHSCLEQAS

interaction of RXRα with IKKγ (RXRα/IKK interaction; HEK293T cells, HA-IKKγ and Flag-RXRα, BI419 10^-6 M, 15d-PGJ2 5 μM, sulindac sulfide 75 μM): further promoted | interaction between RXRα and IKKβ (RXRα/IKK interaction; transfected HEK293T cells, 75 μM): extensive interaction | binding to RXR.alpha by ITC (RXR.alpha): confirmed the binding | endogenous RXRα localization (RXRα; Calu-6, H460, LNCaP, ZR-75-1, MGC80-3 and HEK293T cells, 75 μM, 6 hr): found mainly in the cytoplasm | transfected RXRα localization (RXRα; HEK293T cells, sulindac sulfide): found in the cytoplasm
Compound: CSc1ccc(/C=C2/C(C)=C(CC(=O)O)c3cc(F)ccc32)cc1 [sulindac sulfide]
inducing effect of tRA on RARβ (RARβ expression; ZR-75-1 and Calu-6 cells, trans-RA 10^-6 M): effectively suppressed | activation of RXR/PPAR heterodimer by SR11237 and ciglitazone (RARβ expression) (RARβ expression; SR11237 10^-6 M, ciglitazone 10 μM): effectively inhibited | RXRα mitochondrial localization (RXRα; H460, MGC80-3 and LNCaP cells, 75 μM, 6 hr): results in RXRα mitochondrial localization
